System: 616215-338-R-J1-PDC complex spheroid viability
Experiment: Anticancer human tumor 616215-338-R-J1-PDC patient-derived colon adenocarcinoma cell line growth inhibition [POLQ]
Settings: for IC50: curve of first compound; for viability, T/C: stronger effect = lower value
How it was run: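 PDC + HUVEC + MSC complex spheroids; POLQ inhibitors ± partner drugs; top conc. at/near clinical Cmax, else 10 microM (SN-38 1 microM), half-log dilutions; 37 degrees C, 5% CO2.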

[1] = second compound 0.0316 µM, first compound 0.00316 µM
[2] = second compound 0.0316 µM, first compound 0.01 µM
[3] = second compound 0.0316 µM, first compound 0.0316 µM
[4] = second compound 0.0316 µM, first compound 0.1 µM
[5] = second compound 0.0316 µM, first compound 0.316 µM
[6] = second compound 0.0316 µM, first compound 1 µM
[7] = second compound 0.1 µM, first compound 0.00316 µM
[8] = second compound 0.1 µM, first compound 0.01 µM
[9] = second compound 0.1 µM, first compound 0.0316 µM
[10] = second compound 0.1 µM, first compound 0.1 µM
[11] = second compound 0.1 µM, first compound 0.316 µM
[12] = second compound 0.1 µM, first compound 1 µM
[13] = second compound 0.316 µM, first compound 0.00316 µM
[14] = second compound 0.316 µM, first compound 0.01 µM
[15] = second compound 0.316 µM, first compound 0.0316 µM
[16] = second compound 0.316 µM, first compound 0.1 µM
[17] = second compound 0.316 µM, first compound 0.316 µM
[18] = second compound 0.316 µM, first compound 1 µM
[19] = second compound 1 µM, first compound 0.00316 µM
[20] = second compound 1 µM, first compound 0.01 µM
[21] = second compound 1 µM, first compound 0.0316 µM
[22] = second compound 1 µM, first compound 0.1 µM
[23] = second compound 1 µM, first compound 0.316 µM
[24] = second compound 1 µM, first compound 1 µM
[25] = second compound 3.16 µM, first compound 0.00316 µM
[26] = second compound 3.16 µM, first compound 0.01 µM
[27] = second compound 3.16 µM, first compound 0.0316 µM
[28] = second compound 3.16 µM, first compound 0.1 µM
[29] = second compound 3.16 µM, first compound 0.316 µM
[30] = second compound 3.16 µM, first compound 1 µM
[31] = second compound 10 µM, first compound 0.00316 µM
[32] = second compound 10 µM, first compound 0.01 µM
[33] = second compound 10 µM, first compound 0.0316 µM
[34] = second compound 10 µM, first compound 0.1 µM
[35] = second compound 10 µM, first compound 0.316 µM
[36] = second compound 10 µM, first compound 1 µM
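Further: spheroids exposed to compounds for one week before readout.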
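Wherever viability, T/C is given: percent viability relative to DMSO vehicle wells taken as 100%.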

C=CCn1c(=O)c2cnc(Nc3ccc(N4CCN(C)CC4)cc3)nc2n1-c1cccc(C(C)(C)O)n1 + Cc1cccc(N(C)C(=O)C2C(O)CCN2c2nc(C)cc(C(F)(F)F)c2C#N)c1 showed an IC50 (second compound 0.0316 µM) of 269 nM, an IC50 (second compound 0.1 µM) of 542 nM and an IC50 (second compound 0.316 µM) of 559 nM. The IC50 (second compound 1 µM) was 428 nM, the IC50 (second compound 3.16 µM) was 333 nM and the IC50 (second compound 10 µM) was 250 nM. For the same compound, the viability, T/C [1] was 110%, the viability, T/C [2] was 87.5% and the viability, T/C [3] was 108%. The viability, T/C [4] was 86.7%, the viability, T/C [5] was 44.5% and the viability, T/C [6] was 34.3%. For the same compound, the viability, T/C [7] was 102%, the viability, T/C [8] was 97.4% and the viability, T/C [9] was 85.7%. It also gave a viability, T/C [10] of 93.4%, a viability, T/C [11] of 65.4% and a viability, T/C [12] of 31.2%. For the same compound, the viability, T/C [13] was 97.4%, the viability, T/C [14] was 107% and the viability, T/C [15] was 91.7%. For the same compound, the viability, T/C [16] was 92.4%, the viability, T/C [17] was 67.8% and the viability, T/C [18] was 31.3%. The viability, T/C [19] was 96.8%, the viability, T/C [20] was 90% and the viability, T/C [21] was 92.5%. It also gave a viability, T/C [22] of 76.7%, a viability, T/C [23] of 58.4% and a viability, T/C [24] of 27.8%. For the same compound, the viability, T/C [25] was 98.1%, the viability, T/C [26] was 91.1% and the viability, T/C [27] was 93.8%. For the same compound, the viability, T/C [28] was 90.2%, the viability, T/C [29] was 50.9% and the viability, T/C [30] was 30.9%. It also gave a viability, T/C [31] of 109%, a viability, T/C [32] of 90.1% and a viability, T/C [33] of 90.2%. It also gave a viability, T/C [34] of 83.8%, a viability, T/C [35] of 40.9% and a viability, T/C [36] of 26.9%.

Work on CCCS(=O)(=O)Nc1ccc(F)c(C(=O)c2c[nH]c3ncc(-c4ccc(Cl)cc4)cc23)c1F + Cc1cccc(N(C)C(=O)C2C(O)CCN2c2nc(C)cc(C(F)(F)F)c2C#N)c1 yielded an IC50 (second compound 0.0316 µM) of 5760 nM, an IC50 (second compound 0.1 µM) of 5710 nM and an IC50 (second compound 0.316 µM) of 5240 nM. It also gave an IC50 (second compound 1 µM) of 5510 nM, an IC50 (second compound 3.16 µM) of 5310 nM and an IC50 (second compound 10 µM) of 4290 nM. For the same compound, the viability, T/C [3] was 114%, the viability, T/C [4] was 95.5% and the viability, T/C [5] was 101%. The viability, T/C [6] was 105%, the viability, T/C (second compound 0.0316 µM, first compound 3.16 µM) was 89.5% and the viability, T/C (second compound 0.0316 µM, first compound 10 µM) was 13.4%. The viability, T/C [9] was 115%, the viability, T/C [10] was 109% and the viability, T/C [11] was 101%. It also gave a viability, T/C [12] of 108%, a viability, T/C (second compound 0.1 µM, first compound 3.16 µM) of 91% and a viability, T/C (second compound 0.1 µM, first compound 10 µM) of 11.2%. For the same compound, the viability, T/C [15] was 112%, the viability, T/C [16] was 107% and the viability, T/C [17] was 99%. The viability, T/C [18] was 97.5%, the viability, T/C (second compound 0.316 µM, first compound 3.16 µM) was 83.4% and the viability, T/C (second compound 0.316 µM, first compound 10 µM) was 9.28%. It also gave a viability, T/C [21] of 99.5%, a viability, T/C [22] of 101% and a viability, T/C [23] of 104%. For the same compound, the viability, T/C [24] was 105%, the viability, T/C (second compound 1 µM, first compound 3.16 µM) was 86.9% and the viability, T/C (second compound 1 µM, first compound 10 µM) was 10.2%. The viability, T/C [27] was 114%, the viability, T/C [28] was 98.6% and the viability, T/C [29] was 99.4%. The viability, T/C [30] was 101%, the viability, T/C (second compound 3.16 µM, first compound 3.16 µM) was 83.2% and the viability, T/C (second compound 3.16 µM, first compound 10 µM) was 10%. For the same compound, the viability, T/C [33] was 105%, the viability, T/C [34] was 100% and the viability, T/C [35] was 92.7%. The viability, T/C [36] was 98.1%, the viability, T/C (second compound 10 µM, first compound 3.16 µM) was 65.8% and the viability, T/C (second compound 10 µM, first compound 10 µM) was 7.05%.

CC[C@@]1(O)C(=O)OCc2c1cc1n(c2=O)Cc2cc3c(CN(C)C)c(O)ccc3nc2-1 + Cc1cccc(N(C)C(=O)C2C(O)CCN2c2nc(C)cc(C(F)(F)F)c2C#N)c1 showed an IC50 (second compound 0.0316 µM) greater than 100 nM, an IC50 (second compound 0.1 µM) greater than 100 nM and an IC50 (second compound 0.316 µM) greater than 100 nM. It also gave an IC50 (second compound 1 µM) greater than 100 nM, an IC50 (second compound 3.16 µM) greater than 100 nM and an IC50 (second compound 10 µM) greater than 100 nM. For the same compound, the viability, T/C (second compound 0.0316 µM, first compound 0.000316 µM) was 96.5%, the viability, T/C (second compound 0.0316 µM, first compound 0.001 µM) was 100% and the viability, T/C [1] was 97.7%. It also gave a viability, T/C [2] of 101%, a viability, T/C [3] of 105% and a viability, T/C [4] of 82.5%. It also gave a viability, T/C (second compound 0.1 µM, first compound 0.000316 µM) of 99.2%, a viability, T/C (second compound 0.1 µM, first compound 0.001 µM) of 101% and a viability, T/C [7] of 101%. It also gave a viability, T/C [8] of 116%, a viability, T/C [9] of 107% and a viability, T/C [10] of 79.6%. The viability, T/C (second compound 0.316 µM, first compound 0.000316 µM) was 114%, the viability, T/C (second compound 0.316 µM, first compound 0.001 µM) was 104% and the viability, T/C [13] was 92.3%. The viability, T/C [14] was 114%, the viability, T/C [15] was 96.7% and the viability, T/C [16] was 84.3%. The viability, T/C (second compound 1 µM, first compound 0.000316 µM) was 101%, the viability, T/C (second compound 1 µM, first compound 0.001 µM) was 93.5% and the viability, T/C [19] was 112%. The viability, T/C [20] was 112%, the viability, T/C [21] was 103% and the viability, T/C [22] was 77.2%. It also gave a viability, T/C (second compound 3.16 µM, first compound 0.000316 µM) of 101%, a viability, T/C (second compound 3.16 µM, first compound 0.001 µM) of 94.2% and a viability, T/C [25] of 93.2%. It also gave a viability, T/C [26] of 101%, a viability, T/C [27] of 103% and a viability, T/C [28] of 78.8%. For the same compound, the viability, T/C (second compound 10 µM, first compound 0.000316 µM) was 100%, the viability, T/C (second compound 10 µM, first compound 0.001 µM) was 98.9% and the viability, T/C [31] was 95.3%. It also gave a viability, T/C [32] of 103%, a viability, T/C [33] of 97.8% and a viability, T/C [34] of 64.4%.
